Experimental findings from EP1631829B1, “METHOD AND APPARATUS FOR CHARACTERIZATION OF INTERACTIONS” (GE Healthcare Bio-Sciences AB, priority 2003, dated 2004) are described below.

The target in the assay is T1, HSA (Homo sapiens, UniProt P02768).
T1 construct: purchased Sigma A 3782
Nature of the assay: two-sample (dual) gradient pulse injection SPR assay, site availability of drugs binding to HSA. The following applies: digitoxin and warfarin, 50 µM each, added individual responses vs mixture, 25 °C. On the technique in general: In SPR one partner is held on a chip, and binding of the other changes the refractive index at the surface.

T1 sequence (P02768 25-609): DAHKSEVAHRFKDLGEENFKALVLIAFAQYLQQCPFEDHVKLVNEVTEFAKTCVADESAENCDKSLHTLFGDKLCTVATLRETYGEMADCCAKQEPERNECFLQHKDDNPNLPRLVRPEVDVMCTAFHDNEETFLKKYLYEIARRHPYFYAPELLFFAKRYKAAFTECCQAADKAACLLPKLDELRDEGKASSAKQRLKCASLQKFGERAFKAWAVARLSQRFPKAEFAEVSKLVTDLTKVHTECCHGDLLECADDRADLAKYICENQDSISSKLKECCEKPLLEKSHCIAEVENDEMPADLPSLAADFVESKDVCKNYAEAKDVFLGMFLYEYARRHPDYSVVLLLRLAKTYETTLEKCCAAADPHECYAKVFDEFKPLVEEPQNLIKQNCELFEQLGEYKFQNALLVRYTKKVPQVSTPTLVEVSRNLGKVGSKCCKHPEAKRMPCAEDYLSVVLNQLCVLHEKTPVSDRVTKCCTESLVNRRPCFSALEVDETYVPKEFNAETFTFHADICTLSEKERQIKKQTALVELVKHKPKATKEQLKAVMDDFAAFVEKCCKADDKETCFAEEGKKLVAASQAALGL

For the molecule `C[C@H]1O[C@@H](O[C@H]2[C@@H](O)C[C@H](O[C@H]3[C@@H](O)C[C@H](O[C@H]4CC[C@@]5(C)[C@H](CC[C@@H]6[C@@H]5CC[C@]5(C)[C@@H](C7=CC(=O)OC7)CC[C@]65O)C4)O[C@@H]3C)O[C@@H]2C)C[C@H](O)[C@@H]1O` [Digitoxin, digitoxin], the “binding site relation on HSA” value is “non-competitive binders”.
